According to ChEMBL document CHEMBL5143725, “Optimization of TEAD P-Site Binding Fragment Hit into In Vivo Active Lead MSC-4106” (J Med Chem, 2022):
Each block holds one compound with its values, some of them ahead of it.

How the values were obtained:
[1] = Inhibition of YAP/TAZ-TEAD interaction in human SK-HEP1 cells incubated for 24 hrs by luciferase reporter gene assay; type: cell-based
[2] = Microsomal stability in human microsomes measured per 10^6 cells; type: ADME, Microsome
[3] = Microsomal stability in mouse microsomes measured per 10^6 cells; type: ADME, Microsome
[4] = Microsomal stability in human hepatocyte measured per 10^6 cells; type: ADME, cell-based; details: hepatocytes
[5] = Microsomal stability in mouse hepatocyte measured per 10^6 cells; type: ADME, cell-based; details: hepatocytes
NCI-H226 = assay: Cytotoxicity against human NCI-H226 cells assessed as cell viability at 10 uM measured for 7 days by celltiter-glo assay; type: functional, cell-based; details: NCI-H226, 168 h
[6] = biological target: T1, Transcriptional enhancer factor TEF-1 (Homo sapiens, UniProt P28347); assay: Binding affinity to human TEAD1 (209 to 426 residues) expressed in Escherichia coli BL21 Star (DE3) assessed as change in melting temperature incubated for 2 hrs by measuring tryptophane fluorescence by Nano Differential scanning fluorometry
[7] = biological target: T2, Transcriptional enhancer factor TEF-4 (Homo sapiens, UniProt Q15562); assay: Binding affinity to human TEAD2 (217 to 447 residues) expressed in Escherichia coli BL21 Star (DE3) assessed as change in melting temperature incubated for 2 hrs by measuring tryptophane fluorescence by Nano Differential scanning fluorometry
[8] = biological target: T3, Transcriptional enhancer factor TEF-5 (Homo sapiens, UniProt Q99594); assay: Binding affinity to human TEAD3 (216 to 435 residues) expressed in Escherichia coli BL21 Star (DE3) assessed as change in melting temperature incubated for 2 hrs by measuring tryptophane fluorescence by Nano Differential scanning fluorometry
[9] = biological target: T4, Transcriptional enhancer factor TEF-3 (Homo sapiens, UniProt Q15561); assay: Binding affinity to human TEAD4 (217 to 434 residues) expressed in Escherichia coli BL21 Star (DE3) assessed as change in melting temperature incubated for 2 hr by measuring tryptophane fluorescence by Nano Differential scanning fluorometry
[10] = biological target: T1, Transcriptional enhancer factor TEF-1; assay: Inhibition of pSF-CMV-P-FLAG tagged human TEAD1 palmitoylation transfected in HEK293 cells at 10 uM incubated for 6 hrs by Western blot analysis relative to control; type: cell-based
[11] = biological target: T2, Transcriptional enhancer factor TEF-4; assay: Inhibition of pSF-CMV-P-FLAG tagged human TEAD2 palmitoylation transfected in HEK293 cells at 10 uM incubated for 6 hrs by Western blot analysis relative to control; type: cell-based
[12] = biological target: T3, Transcriptional enhancer factor TEF-5; assay: Inhibition of pSF-CMV-P-FLAG tagged human TEAD3 palmitoylation transfected in HEK293 cells at 10 uM incubated for 6 hrs by Western blot analysis relative to control; type: cell-based
[13] = biological target: T4, Transcriptional enhancer factor TEF-3; assay: Inhibition of pSF-CMV-P-FLAG tagged human TEAD4 palmitoylation transfected in HEK293 cells at 10 uM incubated for 6 hrs by Western blot analysis relative to control; type: cell-based
[14] = Solubility of the compound in PBS buffer at pH 7.4; type: physicochemical
[15] = Solubility of the compound in SGF buffer at pH 1.2; type: physicochemical
[16] = biological target: T1, Transcriptional enhancer factor TEF-1; assay: Binding affinity to human TEAD1 (209 to 426 residues) expressed in Escherichia coli BL21 Star (DE3) by surface plasmon resonance assay
[17] = biological target: T2, Transcriptional enhancer factor TEF-4; assay: Binding affinity to human TEAD2 (217 to 447 residues) expressed in Escherichia coli BL21 Star (DE3) by surface plasmon resonance assay
[18] = biological target: T4, Transcriptional enhancer factor TEF-3; assay: Binding affinity to human TEAD4 (217 to 434 residues) expressed in Escherichia coli BL21 Star (DE3) by surface plasmon resonance assay
[19] = biological target: T1, Transcriptional enhancer factor TEF-1; assay: Binding affinity to human TEAD1 (209 to 426 residues) expressed in Escherichia coli BL21 Star (DE3) assessed as change in melting temperature incubated for 2 hrs by measuring scattering fluorescence by Nano Differential scanning fluorometry
[20] = biological target: T2, Transcriptional enhancer factor TEF-4; assay: Binding affinity to human TEAD2 (217 to 447 residues) expressed in Escherichia coli BL21 Star (DE3) assessed as change in melting temperature incubated for 2 hrs measuring scattering fluorescence by Nano Differential scanning fluorometry
[21] = biological target: T3, Transcriptional enhancer factor TEF-5; assay: Binding affinity to human TEAD3 (216 to 435 residues) expressed in Escherichia coli BL21 Star (DE3) assessed as change in melting temperature incubated for 2 hrs by measuring scattering fluorescence by Nano Differential scanning fluorometry

T3 sequence (Q99594 whole entry, the tested form may be a part): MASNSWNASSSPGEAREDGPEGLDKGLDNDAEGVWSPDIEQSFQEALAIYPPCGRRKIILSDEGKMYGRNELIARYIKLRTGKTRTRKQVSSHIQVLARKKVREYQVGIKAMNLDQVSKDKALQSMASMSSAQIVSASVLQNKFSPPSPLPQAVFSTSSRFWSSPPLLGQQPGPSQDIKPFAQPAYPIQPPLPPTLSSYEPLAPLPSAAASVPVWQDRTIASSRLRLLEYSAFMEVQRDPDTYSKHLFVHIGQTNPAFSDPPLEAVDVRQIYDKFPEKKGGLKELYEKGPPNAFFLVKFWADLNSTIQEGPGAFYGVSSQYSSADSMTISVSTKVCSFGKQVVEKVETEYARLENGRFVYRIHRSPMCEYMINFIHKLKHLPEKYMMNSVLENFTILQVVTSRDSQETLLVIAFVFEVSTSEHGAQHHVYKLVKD
T1 sequence (P28347 whole entry, the tested form may be a part): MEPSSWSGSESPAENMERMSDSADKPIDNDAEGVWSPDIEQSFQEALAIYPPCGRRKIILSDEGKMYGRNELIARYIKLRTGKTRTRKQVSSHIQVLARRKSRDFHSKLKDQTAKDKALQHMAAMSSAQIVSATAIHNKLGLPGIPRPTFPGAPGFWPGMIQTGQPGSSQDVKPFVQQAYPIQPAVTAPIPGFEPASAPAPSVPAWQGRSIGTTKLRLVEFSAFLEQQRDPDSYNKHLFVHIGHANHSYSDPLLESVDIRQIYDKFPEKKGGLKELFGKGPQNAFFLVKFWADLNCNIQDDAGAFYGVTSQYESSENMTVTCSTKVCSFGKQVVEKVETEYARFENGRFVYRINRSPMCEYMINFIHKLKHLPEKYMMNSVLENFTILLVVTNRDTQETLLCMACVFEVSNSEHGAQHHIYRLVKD
T2 sequence (Q15562 whole entry, the tested form may be a part): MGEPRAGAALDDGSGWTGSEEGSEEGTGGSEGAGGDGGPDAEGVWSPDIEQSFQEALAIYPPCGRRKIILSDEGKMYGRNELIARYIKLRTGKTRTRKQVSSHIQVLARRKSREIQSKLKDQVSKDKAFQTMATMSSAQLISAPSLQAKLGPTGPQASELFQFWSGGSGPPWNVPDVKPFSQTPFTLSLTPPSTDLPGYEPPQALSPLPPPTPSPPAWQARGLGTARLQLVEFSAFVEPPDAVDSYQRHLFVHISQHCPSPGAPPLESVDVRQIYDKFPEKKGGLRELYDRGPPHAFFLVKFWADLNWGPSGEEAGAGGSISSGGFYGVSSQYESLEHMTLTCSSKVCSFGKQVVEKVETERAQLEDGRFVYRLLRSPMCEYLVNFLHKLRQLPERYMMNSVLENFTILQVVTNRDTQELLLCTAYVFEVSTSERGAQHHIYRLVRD
T4 sequence (Q15561 whole entry, the tested form may be a part): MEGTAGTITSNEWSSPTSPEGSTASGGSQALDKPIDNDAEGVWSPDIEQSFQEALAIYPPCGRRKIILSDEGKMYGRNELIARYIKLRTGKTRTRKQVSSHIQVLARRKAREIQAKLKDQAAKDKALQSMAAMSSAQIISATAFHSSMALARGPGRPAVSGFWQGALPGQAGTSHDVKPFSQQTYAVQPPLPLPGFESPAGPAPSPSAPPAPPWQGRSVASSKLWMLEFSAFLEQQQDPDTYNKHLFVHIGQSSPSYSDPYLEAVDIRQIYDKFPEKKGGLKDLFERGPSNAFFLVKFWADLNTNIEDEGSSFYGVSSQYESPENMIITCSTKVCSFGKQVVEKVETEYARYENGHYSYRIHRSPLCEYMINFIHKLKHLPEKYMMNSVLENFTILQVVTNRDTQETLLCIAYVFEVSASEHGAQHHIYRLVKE

SMILES: Cn1cc2c3cc(C(=O)O)ccc3n(C34CC(C(F)(F)F)(C3)C4)c2n1
- IC50 [1]: 33 nM
- Stability [2]: < 10 µL/min
- Stability [3]: < 10 µL/min

SMILES: CCCn1cc2c3cc(C(=O)O)ccc3n(-c3ccc(C(F)(F)F)cc3)c2n1
- IC50 [1]: 7 nM

SMILES: Cn1cc2c3cc(C(=O)O)ccc3n(C)c2n1
- IC50 [1]: > 30000 nM
- Stability [2]: < 10 µL/min
- Stability [3]: < 10 µL/min

SMILES: COC1CCC(Cn2c3ccc(C(=O)O)cc3c3cn(C)nc32)CC1 (stereo not given)
- IC50 [1]: 250 nM

SMILES: Cn1ncc2c3cc(C(=O)O)ccc3n(-c3ccc(C(F)(F)F)cc3)c21
- IC50 [1]: 16.6 nM

SMILES: CNS(=O)(=O)c1ccc(NCc2ccccc2)c(-c2cn(C)cn2)c1
- IC50 [1]: 29 nM
- IC50 (NCI-H226): 140 nM
- ΔTm [6]: 3.4 °C
- ΔTm [7]: -0.7 °C
- ΔTm [8]: 0.4 °C
- ΔTm [9]: -0.1 °C
- inhibition [10]: 96%
- inhibition [11]: 33%
- inhibition [12]: 10%
- inhibition [13]: 19%

SMILES: CCn1cc2c3cc(C(=O)O)ccc3n(-c3ccc(C(F)(F)F)cc3)c2n1
- IC50 [1]: 3 nM

SMILES: Cn1cc2c3cc(C(=O)O)ccc3n(C3CCCCC3)c2n1
- IC50 [1]: 0.16 nM

SMILES: CCCc1nn(C2CCC(F)(F)CC2)c2ccc(C(=O)O)cc12
- IC50 [1]: 1.1 nM
- Kd [16]: 5800 nM
- Kd [17]: 43000 nM
- Kd [18]: 7600 nM

SMILES: O=C(O)c1ccc2c(cnn2C2CCCC2)c1
- IC50 [1]: > 30 nM

SMILES: Cn1cc2c3cc(C(=O)O)ccc3n(-c3ccc(C(F)(F)F)nc3)c2n1
- IC50 [1]: 14 nM

SMILES: Cn1cc2c3cc(C(=O)O)ccc3n(CC3CC(C(F)(F)F)C3)c2n1 (stereo not given)
- IC50 [1]: 52 nM
- solubility [14]: > 40 µg/mL
- solubility [15]: < 1 µg/mL
- Stability [2]: < 10 µL/min
- Stability [3]: < 10 µL/min

SMILES: Cn1cc2c3cc(C(=O)O)ccc3n(-c3ccc(F)cc3)c2n1
- IC50 [1]: 163 nM

SMILES: C[C@@H](NC(=O)c1ccc2c(-c3ccc(C(F)(F)F)cc3)cccc2c1)c1cccc(N)n1
- IC50 [1]: 900 nM
- IC50 (NCI-H226): 661 nM
- ΔTm [6]: 5.5 °C
- ΔTm [7]: 3.8 °C
- ΔTm [8]: 5.9 °C
- ΔTm [9]: 1.3 °C
- inhibition [10]: 83%
- inhibition [11]: 51%
- inhibition [12]: 91%
- inhibition [13]: 66%

SMILES: Cn1cc2c3cc(C(=O)O)ccc3n(CC3CCCCC3)c2n1
- IC50 [1]: 96 nM
- solubility [14]: > 40 µg/mL
- solubility [15]: < 1 µg/mL

SMILES: Cn1cc2c3cc(C(=O)O)ccc3n(CC3CCC(C(F)(F)F)CC3)c2n1 (stereo not given)
- IC50 [1]: 30 nM

SMILES: O=C(O)c1ccc2c(cnn2C2CCC(F)(F)CC2)c1
- IC50 [1]: 14 nM

SMILES: Cn1ncc2c1c1cc(C(=O)O)ccc1n2-c1ccc(C(F)(F)F)cc1
- IC50 [1]: 48 nM

SMILES: N#CCn1cc2c3cc(C(=O)O)ccc3n(-c3ccc(C(F)(F)F)cc3)c2n1
- IC50 [1]: 27 nM

SMILES: C[C@H](NC(=O)c1ccc2c(-c3ccc(C(F)(F)F)cc3)cccc2c1)c1cccc(N)n1
- IC50 [1]: 30 nM
- IC50 (NCI-H226): 20 nM
- ΔTm [6]: 14.5 °C
- ΔTm [7]: 13.4 °C
- ΔTm [8]: 13.4 °C
- ΔTm [9]: 1.3 °C
- inhibition [10]: 92%
- inhibition [11]: 87%
- inhibition [12]: 91%
- inhibition [13]: 93%

SMILES: O=C(O)c1ccc2c(c1)c1c[nH]nc1n2-c1ccc(C(F)(F)F)cc1
- IC50 [1]: 138 nM

SMILES: O=C(O)c1ccc2c(c1)c1cn(C(F)(F)F)nc1n2-c1ccc(C(F)(F)F)cc1
- IC50 [1]: 7 nM
- Stability [4]: < 4 µL/min

SMILES: O=C(O)c1cnc2c(cnn2C2CCCCC2)c1
- IC50 [1]: 5.2 nM

SMILES: Cn1cc2c3cc(C(=O)O)ccc3n(CCC(C)(C)C(F)(F)F)c2n1
- IC50 [1]: 83 nM
- solubility [14]: > 40 µg/mL
- solubility [15]: < 1 µg/mL
- Stability [2]: < 10 µL/min
- Stability [3]: < 10 µL/min

More lines, main results first:

- IC50 [1]: 6 nM
SMILES: Cn1cc2c3cc(C(=O)O)cnc3n(-c3ccc(C(F)(F)F)cc3)c2n1

- IC50 [1]: 28 nM
SMILES: O=C(O)c1cnc2c(cnn2C2CCC(F)(F)CC2)c1

- IC50 [1]: 39 nM
SMILES: Cn1cc2c3cc(C(=O)O)ncc3n(-c3ccc(C(F)(F)F)cc3)c2n1

- IC50 [1]: 17 nM
SMILES: Cn1cc2c(n1)c1cc(C(=O)O)ccc1n2C1CCCC1

- IC50 [1]: 3 nM
- Stability [2]: 12 µL/min
- Stability [4]: 19 µL/min
SMILES: Cn1cc2c3cc(C(=O)O)ccc3n(-c3ccc(OC(F)(F)F)cc3)c2n1

- IC50 [1]: 4 nM
- Stability [4]: > 20 µL/min
- Stability [5]: > 20 µL/min
SMILES: C#CCn1cc2c3cc(C(=O)O)ccc3n(-c3ccc(C(F)(F)F)cc3)c2n1

- IC50 [1]: 46 nM
SMILES: Cn1cc2c3cc(C(=O)O)ccc3n(-c3cccc(C(F)(F)F)c3)c2n1

- IC50 [1]: 1 nM
- ΔTm [6]: 10.2 °C
- ΔTm [7]: 7.2 °C
- ΔTm [8]: 2 °C
- ΔTm [9]: 3.5 °C
- inhibition [10]: 97%
- inhibition [11]: 69%
- inhibition [12]: 29%
- inhibition [13]: 70%
SMILES: CNS(=O)(=O)c1ccc(Nc2ccc(C(F)(F)F)cc2)c(-c2cn(C)cn2)c1
- IC50 (NCI-H226): 3 nM

- IC50 [1]: 42 nM
- solubility [14]: > 40 µg/mL
- solubility [15]: < 1 µg/mL
SMILES: Cn1cc2c3cc(C(=O)O)ccc3n(C3CCC(C(F)(F)F)CC3)c2n1 (stereo not given)

- IC50 [1]: 11 nM
SMILES: Cn1cc2c3cc(C(=O)O)ccc3n(-c3cccc(OC(F)(F)F)c3)c2n1

- IC50 [1]: 0.73 nM
SMILES: Cn1cc2c(n1)c1cc(C(=O)O)ccc1n2C1CCCCC1

- IC50 [1]: 16 nM
SMILES: Cn1cc2c3nc(C(=O)O)ccc3n(-c3ccc(C(F)(F)F)cc3)c2n1

- IC50 [1]: 16 nM
SMILES: O=C(O)c1cnc2c(cnn2C2CCCC2)c1

- IC50 [1]: 33 nM
- Stability [2]: < 10 µL/min
- Stability [3]: < 10 µL/min
SMILES: Cn1cc2c3cc(C(=O)O)ccc3n(C3CC4(C3)CC(F)(F)C4)c2n1

- IC50 [1]: 27 nM
SMILES: Cn1cc2c3cc(C(=O)O)ccc3n(-c3ccc(OC(F)(F)F)cc3F)c2n1

- IC50 [1]: 5 nM
SMILES: Cn1cc2c3cc(C(=O)O)ccc3n(-c3ccc(C(F)(F)F)cn3)c2n1

- IC50 [1]: 4 nM
SMILES: Cn1cc2c3cc(C(=O)O)ccc3n(-c3ccc(C(F)(F)F)c(F)c3)c2n1

- IC50 [1]: 9 nM
SMILES: Cn1cc2c(n1)c1cc(C(=O)O)ccc1n2-c1ccc(C(F)(F)F)cc1

- IC50 [1]: 15 nM
- ΔTm [6]: 11.2 °C
- ΔTm [7]: 12.3 °C
- ΔTm [8]: 8.2 °C
- ΔTm [9]: 9.8 °C
- inhibition [10]: 97%
- inhibition [11]: 86%
- inhibition [12]: 83%
- inhibition [13]: 91%
SMILES: O=c1[nH]c(-c2nccnc2Nc2ccc(C(F)(F)F)cc2)no1
- IC50 (NCI-H226): 110 nM

- IC50 [1]: > 30000 nM
SMILES: Cn1cc2c(n1)[nH]c1ccc(C(=O)O)cc12

- IC50 [1]: 36 nM
- ΔTm [9]: 14.9 °C
- inhibition [10]: 84%
- inhibition [11]: 86%
- inhibition [12]: 91%
- inhibition [13]: 88%
- ΔTm [19]: 7.6 °C
- ΔTm [20]: 9.5 °C
- ΔTm [21]: 6.9 °C
SMILES: Cc1nccnc1-c1nn2c(=O)cc(-c3ccc(C4CCCCC4)cc3)[nH]c2c1C(=O)N1CC(CF)C1
- IC50 (NCI-H226): 82 nM

- IC50 [1]: 25 nM
- ΔTm [6]: 10.8 °C
- ΔTm [7]: 9.8 °C
- ΔTm [8]: 10.1 °C
- ΔTm [9]: -2.25 °C
- inhibition [10]: 93%
- inhibition [11]: 87%
- inhibition [12]: 93%
- inhibition [13]: 93%
SMILES: C[C@H](NC(=O)c1ccc2c(-c3ccc(C(F)(F)F)cc3)cccc2c1)c1ccccn1
- IC50 (NCI-H226): 42 nM
